Experimental data published in article PMC8772704, “Quantification of Fosfomycin in Combination with Nine Antibiotics in Human Plasma and Cation-Adjusted Mueller-Hinton II Broth via LCMS” (Antibiotics, 2022).

How the values were obtained:
[1] = Plasma concentrations in four patients on fosfomycin-based combination therapy (pilot clinical feasibility study, LCMS/MS)
Experimental: For 20 µL of plasma/CAMHB sample, 20 µL of water and 20 µL of stable-isotope as internal standard (IS) were added and vortexed. 180 µL of acetonitrile was added for protein precipitation and subsequently removed by centrifugation (12,700 rpm for 10 min at 25 °C). Finally, 15 µL of the supernatant was diluted with 225 µL formic acid in water (0.1% v/v), and 10 µL was injected for LCMS/MS analysis. For the calibration curve and QCs, 20 µL of the corresponding antibiotic standard working solution was added instead of water.
Samples were analyzed using a Nexera X2 LCMS 8060 system (Shimadzu, Kyoto, Japan). […] Electrospray ionization employing positive and negative ion mode with multiple reaction monitoring was used for analyte quantification (Table S1). Data were acquired and analyzed using Shimadzu LabSolutions (Version 5.97).
The assay method described in this paper has been applied to a pilot clinical feasibility study to evaluate the proportion of patients with sub-optimal β-lactam levels and the need for dose adjustments in infected patients with unpredictable pharmacokinetics. We described a case series of four patients where they received in vitro guided antibiotic combination therapy using a fosfomycin-based combination regimen to treat a carbapenem-resistant Gram-negative bacteria infection. These four patients were recruited into the BLAST-2 study as the combination regimen contains a β-lactam antibiotic. In this case series, two were undergoing intermittent hemodialysis, and two patients had normal renal function. In the two patients on hemodialysis, they were on a dosing regimen of 8 g of fosfomycin on dialysis days (3 g at least 4 h before dialysis session and 5 g after completion of dialysis). The remaining two patients received 8 g of fosfomycin given every 8 h as a prolonged infusion.
Blood samples (2–3 mL from an indwelling catheter) were collected four times over a dosing interval of the β-lactam dosing regimen and centrifuged (10 min at 3000 rpm) (Eppendorf 5425R). The resultant plasma was stored (within 15 min of collection) at −80 °C until assay.

[2] = Long-term storage stability of antibiotics in combination with fosfomycin spiked in plasma/CAMHB (−30 °C, −80 °C); format: physicochemical; details: for Stability verdict (within ±15% of nominal): CAMHB samples stored at −30 °C, 4 weeks; for Mean accuracy (%), Table S17 / Mean accuracy (%), Table S16 / Mean accuracy (%), Table S18 / Mean accuracy (%), Table S15: CAMHB; for Mean accuracy (%), Table S17 / Mean accuracy (%), Table S16 / Mean accuracy (%), Table S18 / Mean accuracy (%), Table S11 / Mean accuracy (%), Table S13 / Mean accuracy (%), Table S12 / Mean accuracy (%), Table S14 / Mean accuracy (%), Table S15: combination with fosfomycin; for Mean accuracy (%), Table S17 / Mean accuracy (%), Table S13: 2 weeks at -80 °C; for Mean accuracy (%), Table S16 / Mean accuracy (%), Table S12: 4 weeks at -30 °C; for Mean accuracy (%), Table S18 / Mean accuracy (%), Table S14: 4 weeks at -80 °C; for Mean accuracy (%), Table S11 / Mean accuracy (%), Table S13 / Mean accuracy (%), Table S12 / Mean accuracy (%), Table S14: plasma; for Mean accuracy (%), Table S11 / Mean accuracy (%), Table S15: 2 weeks at -30 °C
Experimental: (§1) The stability of fosfomycin in combination with other antibiotics in plasma/CAMHB was evaluated under various operational conditions. Spiked plasma/CAMHB samples were evaluated at 7 h and 15 h in the autosampler at 4 °C. Long-term stability was evaluated up to 4 weeks of antibiotic-spiked plasma/CAMHB samples at LQC, MQC, and HQC concentrations stored at −30 °C and −80 °C.

[3] = 32-day stability of stock solutions stored at −80 °C; format: physicochemical; details: stock solution stored at -80 °C; peak area Day 32 vs Day 1
Experimental: Stability of stock solutions
All stock solutions of antibiotics and their corresponding stable-isotope variants were measured prior to cold storage at -80 °C and tested at 32 days later.
Stability was determined by comparing the peak area of each drug between its Day 1 and Day 32 measurement. Acceptable criteria for stability was met if the […]

[4] = Autosampler stability at 4 °C of extracted antibiotic-spiked plasma/CAMHB samples; details: for Mean accuracy (%), Table S8 / Mean accuracy (%), Table S10: CAMHB extracted samples; for Mean accuracy (%), Table S8 / Mean accuracy (%), Table S7: 7 h autosampler 4 °C; for Mean accuracy (%), Table S10 / Mean accuracy (%), Table S9: 15 h autosampler 4 °C; for Mean accuracy (%), Table S7 / Mean accuracy (%), Table S9: plasma extracted samples
Experimental: as §1

[5] = HQC: nominal mg/L CAZ 150, FEP 200, PIP 250, ATM 300, MEM 200, DOR 175, LVX 30, CEFT 250, TZB 87.5, TGC 20, AVI 30, FOF 1000
[6] = LQC: nominal 1 mg/L (levofloxacin, avibactam 0.5; fosfomycin 10)
[7] = MQC: nominal mg/L CAZ 75, FEP 100, PIP 150, ATM 150, MEM 100, DOR 87.5, LVX 15, CEFT 125, TZB 43.75, TGC 10, AVI 15, FOF 500

Row | Compound | Stability verdict (within ±15% of nominal) [2] | Mean accuracy (%), Table S17 ([2]; HQC (nominal as E15)) [%] | Mean accuracy (%), Table S17 ([2]; LQC (nominal as E13)) [%] | Mean accuracy (%), Table S17 ([2]; MQC (nominal as E14)) [%] | Mean accuracy (%), Table S16 ([2]; HQC (nominal as E15)) [%] | Mean accuracy (%), Table S16 ([2]; LQC (nominal as E13)) [%] | Mean accuracy (%), Table S16 ([2]; MQC (nominal as E14)) [%] | Mean accuracy (%), Table S18 ([2]; HQC (nominal as E15)) [%] | Mean accuracy (%), Table S18 ([2]; LQC (nominal as E13)) [%] | Mean accuracy (%), Table S18 ([2]; MQC (nominal as E14)) [%] | Mean accuracy (%), Table S11 ([2]; HQC (nominal as E15)) [%] | Mean accuracy (%), Table S11 ([2]; LQC (nominal as E13)) [%] | Mean accuracy (%), Table S11 ([2]; MQC (nominal as E14)) [%] | Mean accuracy (%), Table S13 ([2]; HQC (nominal as E15)) [%] | Mean accuracy (%), Table S13 ([2]; LQC (nominal as E13)) [%] | Mean accuracy (%), Table S13 ([2]; MQC (nominal as E14)) [%] | Mean accuracy (%), Table S12 ([2]; HQC (nominal as E15)) [%] | Mean accuracy (%), Table S12 ([2]; LQC (nominal as E13)) [%] | Mean accuracy (%), Table S12 ([2]; MQC (nominal as E14)) [%] | Mean accuracy (%), Table S14 ([2]; HQC (nominal as E15)) [%] | further results
1 | C[C@@H](O)[C@H]1C(=O)N2C(C(=O)O)=C(S[C@@H]3CN[C@H](C(=O)N(C)C)C3)[C@H](C)[C@H]12 [Meropenem, meropenem] | instability | 99.6 | 104.3 | 97.3 | 66.1 | 60.1 | 63.5 | 97.4 | 97.9 | 95.4 | 93.3 | 86.6 | 89.7 | 105.4 | 104.2 | 95.0 | 91.8 | 106.1 | 93.8 | 96.1 | Mean total plasma concentration (range) ([1]; Patient 004, meropenem 2 g every 8 h as a 3-h infusion): 6.7 to 23.0 mg/L; Mean accuracy (%), Table S14 ([2]; LQC (nominal as E13)): 101.8%; Mean accuracy (%), Table S14 ([2]; MQC (nominal as E14)): 95.2%; 32 Day Stability (%) [3]: 100.48%; Mean accuracy (%), Table S8 ([4]; HQC (nominal as E15)): 107.7%; Mean accuracy (%), Table S8 ([4]; LQC (nominal as E13)): 104.0%; Mean accuracy (%), Table S8 ([4]; MQC (nominal as E14)): 102.6%; Mean accuracy (%), Table S10 ([4]; HQC (nominal as E15)): 106.9%; Mean accuracy (%), Table S10 ([4]; LQC (nominal as E13)): 107.7%; Mean accuracy (%), Table S10 ([4]; MQC (nominal as E14)): 100.8%; Mean accuracy (%), Table S7 [4, 5]: 99.6%; Mean accuracy (%), Table S7 [4, 6]: 110.0%; Mean accuracy (%), Table S7 [4, 7]: 95.5%; Mean accuracy (%), Table S9 ([4]; HQC (nominal as E15)): 97.9%; Mean accuracy (%), Table S9 ([4]; LQC (nominal as E13)): 109.1%; Mean accuracy (%), Table S9 ([4]; MQC (nominal as E14)): 98.9%
2 | C[C@H]1[C@H](NC(=O)/C(=N\OC(C)(C)C(=O)O)c2csc(N)n2)C(=O)N1S(=O)(=O)O [Aztreonam, aztreonam] | instability | 100.2 | 101.3 | 95.1 | 92.5 | 66.5 | 91.8 | 98.4 | 109.7 | 96.0 | 97.3 | 103.1 | 90.2 | 97.2 | 87.6 | 94.5 | 96.1 | 106.4 | 96.2 | 97.8 | Mean total plasma concentration (range) ([1]; Patient 002, intermittent hemodialysis, aztreonam 2 g every 12 h as a 2-h infusion): 8.8 to 86.2 mg/L; Mean accuracy (%), Table S15 ([2]; HQC (nominal as E15)): 102.6%; Mean accuracy (%), Table S15 ([2]; LQC (nominal as E13)): 102.2%; Mean accuracy (%), Table S15 ([2]; MQC (nominal as E14)): 92.5%; Mean accuracy (%), Table S14 ([2]; LQC (nominal as E13)): 104.2%; Mean accuracy (%), Table S14 ([2]; MQC (nominal as E14)): 101.4%; 32 Day Stability (%) [3]: 99.75%; Mean accuracy (%), Table S8 ([4]; HQC (nominal as E15)): 99.3%; Mean accuracy (%), Table S8 ([4]; LQC (nominal as E13)): 109.7%; Mean accuracy (%), Table S8 ([4]; MQC (nominal as E14)): 107.5%; Mean accuracy (%), Table S10 ([4]; HQC (nominal as E15)): 104.4%; Mean accuracy (%), Table S10 ([4]; LQC (nominal as E13)): 103.7%; Mean accuracy (%), Table S10 ([4]; MQC (nominal as E14)): 104.7%; Mean accuracy (%), Table S7 [4, 5]: 109.1%; Mean accuracy (%), Table S7 [4, 6]: 100.8%; Mean accuracy (%), Table S7 [4, 7]: 101.2%; Mean accuracy (%), Table S9 ([4]; HQC (nominal as E15)): 107.9%; Mean accuracy (%), Table S9 ([4]; LQC (nominal as E13)): 105.8%; Mean accuracy (%), Table S9 ([4]; MQC (nominal as E14)): 102.4%
